Source: patent publication US20110230471A1, “BENZONAPHTYRIDINE COMPOUNDS AS INHIBITORS OF AUTOTAXIN” (MERCK PATENT GESELLSCHAFT MIT BESCHRANKTER HAFTUNG, priority 2008, published 2011)

Target: T1, recombinant autotaxin (Homo sapiens, UniProt Q13822)
T1 construct: made in house; host or cells: Hi5 insect cells (baculovirus)
Assay: Autotaxin test (enzyme test), Amplex Red
Format: biochemical
Settings: Autotaxin inhibition (enzyme test), substrate LPC 75 μM
Protocol: The autotaxin activity is measured indirectly using Amplex Red reagent. Amplex Red is measured here as fluorogenic indicator for the H2O2 formed. In detail, autotaxin converts the substrate lysophosphatidylcholine (LPC) into phosphocholine and lysophosphatidylic acid (LPA). After this reaction, the phosphocholine is reacted with alkaline phosphatase to give inorganic phosphate and choline. In the next step, choline is oxidised by choline oxidase to give betaine, with formation of H2O2. H2O2 reacts with Amplex Red reagent in the presence of peroxidase (horseradish peroxidase) in a 1:1 stoichiometry and forms the highly fluorescent resorufin. The fluorescence is measured in a reaction-dependent kinetic mode in order that fluorescent signals from possible other fluorescent substances which are not involved in the reaction can be corrected out.
1.5 μl of a standard solution or of the test substances (substances with the name A(n))in individual concentrations dissolved in 20 mM Hepes pH 7.2 with a maximum of 7.7% of DMSO are pre-incubated together with 10 μl (16 ng) of highly purified recombinant autotaxin in a black microtitre plate provided with 384 wells at 22° C. for 30 min. The reaction is then initiated by addition of 5 μl of L-α-lysophosphatidylcholine (LPC), where the final concentration of LPC is 75 μM. The mixture is incubated at 37° C. for 90 min. After the incubation, Amplex Red reagent, peroxidase (horseradish peroxidase) and choline oxidase is added, and the fluorescence is immediately measured at 612 nm with excitation of 485 nm in a “Tecan Ultra multimode” reader. The activity of autotaxin is calculated indirectly via detection of the H2O2 formed.
• Microtitre plate: PS microplate, 384 wells, small volume, black Corning, Cat#3677 • Protein: recombinant autotaxin (Baculovirale Hi5 Expression) • Substrate: L-α-lysophosphatidylcholine (chicken egg)); Avanti Polar Lipids # 830071 P • Standard: C14 LPA, Avanti Polar Lipids, Cat# 857120P • Detection reagent: Amplex Red reagent; Invitrogen # A12222; dissolved in 1.923 ml of DMSO peroxidase type VI-A (horseradish) from Sigma # P6782; dissolved in 7.45 ml of test buffer, choline oxidase; Sigma # C5896; dissolved in 2.47 ml of test buffer • Detection reagent mix: 1:100 dilution of Amplex Red reagent in test buffer • Test buffer: 200 mM Tris HCl, Merck, Cat # 1.08219, pH 7.9, 0.1% of BSA, lipid-free, Roche Cat#775835

CCOc1ncc(Cl)cc1NC(=O)CN1CCc2nc3ccccc3c(C(=O)N3CCOCC3)c2C1 [Compound A52, N-(5-Chloro-2-ethoxypyridin-3-yl)-2-[10-(morpholine-4-carbonyl)-3,4-dihydro-1H-benzo[b][1,6]naphthyridin-2-yl]acetamide]
IC50 (TABLE 1 (A compounds)): > 1000 nM

O=C(CN1CCc2nc3ccccc3c(C(=O)N3CCOCC3)c2C1)Nc1ccc(Cl)cc1O [Compound A53, N-(4-Chloro-2-hydroxyphenyl)-2-[10-(morpholine-4-carbonyl)-3,4-dihydro-1H-benzo[b][1,6]naphthyridin-2-yl]acetamide]
IC50 (TABLE 1 (A compounds)): 100 to 1000 nM

O=C(CN1CCc2nc3ccccc3c(C(=O)N3CCOCC3)c2C1)Nc1cc(Cl)ccc1OCCO [Compound A54, N-[5-Chloro-2-(2-hydroxyethoxy)phenyl]-2-[10-(morpholine-4-carbonyl)-3,4-dihydro-1H-benzo[b][1,6]naphthyridin-2-yl]acetamide]
IC50 (TABLE 1 (A compounds)): 100 to 1000 nM

CC(C)Oc1ccc(Cl)cc1NC(=O)CN1CCc2nc3ccccc3c(C(=O)N3CCN(CCO)CC3)c2C1 [Compound A60, N-(5-Chloro-2-isopropoxyphenyl)-2-{10-[4-(2-hydroxyethyl)piperazine-1-carbonyl]-3,4-dihydro-1H-benzo[b][1,6]naphthyridin-2-yl}acetamide]
IC50 (TABLE 1 (A compounds)): > 1000 nM

O=C(CN1CCc2nc3ccccc3c(C(=O)N3CCN(CCO)CC3)c2C1)Nc1cc(Cl)ccc1OCCO [Compound A61, N-[5-Chloro-2-(2-hydroxyethoxy)phenyl]-2-{10-[4-(2-hydroxyethyl)-piperazine-1-carbonyl]-3,4-dihydro-1H-benzo[b][1,6]naphthyridin-2-yl}-acetamide]
IC50 (TABLE 1 (A compounds)): 100 to 1000 nM

O=C(CN1CCc2nc3ccccc3c(C(=O)N3CCN(CCO)CC3)c2C1)Nc1ccc(N2CCCC2=O)c(Cl)c1 [Compound A64, N-[3-Chloro-4-(2-oxopyrrolidin-1-yl)phenyl]-2-{10-[4-(2-hydroxyethyl)-piperazine-1-carbonyl]-3,4-dihydro-1H-benzo[b][1,6]naphthyridin-2-yl}-acetamide]
IC50 (TABLE 1 (A compounds)): > 1000 nM

O=C(CN1CCc2nc3ccccc3c(C(=O)N3CCN(CCO)CC3)c2C1)Nc1ccc(N2CCOCC2=O)c(Cl)c1 [Compound A65, N-[3-Chloro-4-(3-oxomorpholin-4-yl)phenyl]-2-{10-[4-(2-hydroxyethyl)-piperazine-1-carbonyl]-3,4-dihydro-1H-benzo[b][1,6]naphthyridin-2-yl}-acetamide]
IC50 (TABLE 1 (A compounds)): > 1000 nM

COc1ccc(Cl)cc1NC(=O)CN1CCc2nc3ccccc3c(C(=O)N3CCN(CCN4CCCCC4)CC3)c2C1 [Compound A66, N-(5-Chloro-2-methoxyphenyl)-2-{10-[4-(2-piperidin-1-ylethyl)piperazine-1-carbonyl]-3,4-dihydro-1H-benzo[b][1,6]naphthyridin-2-yl}acetamide]
IC50 (TABLE 1 (A compounds)): < 100 nM

COc1ccc(Cl)cc1NC(=O)CN1CCc2nc3ccccc3c(C(=O)N3CCN(CCN(C)C)CC3)c2C1 [Compound A67, N-(5-Chloro-2-methoxyphenyl)-2-{10-[4-(2-dimethylaminoethyl)piperazine-1-carbonyl]-3,4-dihydro-1H-benzo[b][1,6]naphthyridin-2-yl}acetamide]
IC50 (TABLE 1 (A compounds)): < 100 nM

COc1ccc(Cl)cc1NC(=O)CN1CCc2nc3ccccc3c(C(=O)N3CCN(CCN4CCOCC4)CC3)c2C1 [Compound A68, N-(5-Chloro-2-methoxyphenyl)-2-{10-[4-(2-morpholin-4-ylethyl)piperazine-1-carbonyl]-3,4-dihydro-1H-benzo[b][1,6]naphthyridin-2-yl}acetamide]
IC50 (TABLE 1 (A compounds)): < 100 nM

COc1ccc(Br)cc1NC(=O)CN1CCc2nc3ccccc3c(C(=O)N3CCN(CCO)CC3)c2C1 [Compound A69, N-(5-Bromo-2-methoxyphenyl)-2-{10-[4-(2-hydroxyethyl)piperazine-1-carbonyl]-3,4-dihydro-1H-benzo[b][1,6]naphthyridin-2-yl}acetamide]
IC50 (TABLE 1 (A compounds)): < 100 nM

Cc1ccc(NC(=O)CN2CCc3nc4ccccc4c(C(=O)N4CCN(CCO)CC4)c3C2)cc1Cl [Compound A73, N-(3-Chloro-4-methylphenyl)-2-{10-[4-(2-hydroxyethyl)piperazine-1-carbonyl]-3,4-dihydro-1H-benzo[b][1,6]naphthyridin-2-yl}acetamide]
IC50 (TABLE 1 (A compounds)): > 1000 nM

O=C(CN1CCc2nc3ccccc3c(C(=O)N3CCN(CCO)CC3)c2C1)Nc1ccc(F)c(Cl)c1 [Compound A74, N-(3-Chloro-4-fluorophenyl)-2-{10-[4-(2-hydroxyethyl)piperazine-1-carbonyl]-3,4-dihydro-1H-benzo[b][1,6]naphthyridin-2-yl}acetamide]
IC50 (TABLE 1 (A compounds)): > 1000 nM

O=C(CN1CCc2nc3ccccc3c(C(=O)N3CCN(CCO)CC3)c2C1)Nc1cc(Cl)ccc1Cl [Compound A75, N-(2,5-Dichlorophenyl)-2-{10-[4-(2-hydroxyethyl)piperazine-1-carbonyl]-3,4-dihydro-1H-benzo[b][1,6]naphthyridin-2-yl}acetamide]
IC50 (TABLE 1 (A compounds)): 100 to 1000 nM

O=C(CN1CCc2nc3ccccc3c(C(=O)N3CCN(CCO)CC3)c2C1)Nc1ccc(Cl)c(Cl)c1 [Compound A76, N-(3,4-Dichlorophenyl)-2-{10-[4-(2-hydroxyethyl)piperazine-1-carbonyl]-3,4-dihydro-1H-benzo[b][1,6]naphthyridin-2-yl}acetamide]
IC50 (TABLE 1 (A compounds)): > 1000 nM

O=C(CN1CCc2nc3ccccc3c(C(=O)N3CCN(CCO)CC3)c2C1)Nc1cc(Cl)ccc1F [Compound A78, N-(5-Chloro-2-fluorophenyl)-2-{10-[4-(2-hydroxyethyl)piperazine-1-carbonyl]-3,4-dihydro-1H-benzo[b][1,6]naphthyridin-2-yl}acetamide]
IC50 (TABLE 1 (A compounds)): 100 to 1000 nM

O=C(CN1CCc2nc3ccccc3c(C(=O)N3CCN(CCO)CC3)c2C1)Nc1cc(Cl)cc2ncoc12 [Compound A79, N-(5-Chlorobenzooxazol-7-yl)-2-{10-[4-(2-hydroxyethyl)piperazine-1-carbonyl]-3,4-dihydro-1H-benzo[b][1,6]naphthyridin-2-yl}acetamide]
IC50 (TABLE 1 (A compounds)): > 1000 nM

COc1c(Cl)cc(Cl)cc1NC(=O)CN1CCc2nc3ccccc3c(C(=O)N3CCN(CCO)CC3)c2C1 [Compound A80, N-(3,5-Dichloro-2-methoxyphenyl)-2-{10-[4-(2-hydroxyethyl)piperazine-1-carbonyl]-3,4-dihydro-1H-benzo[b][1,6]naphthyridin-2-yl}acetamide]
IC50 (TABLE 1 (A compounds)): 100 to 1000 nM

COc1ccc(Cl)cc1N(C)C(=O)CN1CCc2nc3ccccc3c(C(=O)N3CCOCC3)c2C1 [Compound A87, N-(5-Chloro-2-methoxyphenyl)-N-methyl-2-[10-(morpholine-4-carbonyl)-3,4-dihydro-1H-benzo[b][1,6]naphthyridin-2-yl]acetamide]
IC50 (TABLE 1 (A compounds)): 100 to 1000 nM

CNC(=O)C(NC(=O)CN1CCc2nc3ccccc3c(C(=O)N3CCN(CCO)CC3)c2C1)c1ccc(Cl)cc1 (stereo not drawn) [Compound B2, 2-(4-Chlorophenyl)-2-(2-{10-[4-(2-hydroxyethyl)piperazine-1-carbonyl]-3,4-dihydro-1H-benzo[b][1,6]naphthyridin-2-yl}acetylamino)-N-methylacetamide]
IC50 (TABLE 2 (B compounds)): > 1000 nM

O=C(CN1CCc2nc3ccccc3c(C(=O)N3CCN(CCO)CC3)c2C1)Nc1cc(Cl)ccc1OC(F)(F)F [Compound B4, N-(5-Chloro-2-trifluoromethoxyphenyl)-2-{10-[4-(2-hydroxyethyl)piperazine-1-carbonyl]-3,4-dihydro-1H-benzo[b][1,6]naphthyridin-2-yl}acetamide]
IC50 (TABLE 2 (B compounds)): > 1000 nM
